Reference: patent US20230391727A1, “ANALOGUES OF PENTAMIDINE AND METHODS FOR TREATING INFECTIONS” (Auransa Inc., priority 2020, published 2023)
Like-named read-outs stand apart in the source and are kept apart here.

Key:
Assay in all cases: Anti-fungal MIC assay
Format in all cases: cell-based
[1] = system: Aspergillus fumigatus AF293
Method: (§1) The first round of testing included Candida parapsilosis, Candida krusei, Paecilomyces variotii, Candida albicans, Aspergillus fumigatus, and Blastomyces dermatitidis. […] The second round of testing included Candida parapsilosis, Candida krusei, Candida albicans, Candida auris, Candida glabrata, Candida guilliermondii, and Cryptococcus neoformans.
(§2) Stock solutions of the investigational agent were prepared at concentrations 100-times the highest concentration to be tested (6400 μg/ml) using dimethyl sulfoxide. Aliquots of the stock solutions were dispensed into polystyrene vials and stored at −20° C.
(§3) The synthetic medium RPMI-1640 (with glutamine, without bicarbonate, and with phenol red) was used. The RPMI was buffered to a pH of 7.0+0.1 at 25° C. with 0.165M MOPS (3-[N-morpholino] propanesulfonic acid). Sterile U-shaped 96-well cell culture plates were used to perform the MIC assays. Dilutions of the DMSO stocks were prepared in RPMI to achieve 2× concentrations. After the dilutions of the working 2× investigational antifungal solutions were prepared, 0.1 ml of each concentration was transferred into a pre-specified column of the U-shaped 96-well cell culture plate using sterile pipettes.
(§4) Fungal isolates were grown on Sabouraud dextrose agar (yeasts) or potato flake agar (filamentous fungi) and cells were collected after an appropriate period of growth for each species being evaluated (e.g., 48-72 hours for yeasts and 7 days for filamentous fungi). The fungi were suspended in sterile distilled water, and the densities of the fungal suspension were read using a spectrophotometer and adjusted to an appropriate optical density specific for each fungal species. The fungal suspension of each isolate was then diluted in RPMI. A sufficient volume of the test inoculum was prepared to directly inoculate 0.1 ml into each test well of the 96-well cell culture plate. Final inoculum ranges were dependent on the fungal species to be tested (e.g., 0.4×103 to 5×10^3 cells/ml for yeasts and dimorphic fungi, and 0.4×104 to 5×10^4 cells/ml for filamentous fungi). Each well of the 96-well cell culture plate containing the investigational antifungal compounds (0.1 ml volume) was inoculated on the day of the assay with 0.1 ml of the fungal suspension. Growth control wells contained 0.1 ml of fungal suspension and 0.1 ml of the growth medium without antifungal agents. The media control well contained 0.2 ml of the growth medium.
(§5) The microdilution trays were incubated at 35° C. without agitation. […] One positive comparator/control was used for yeast (fluconazole) and one was used for filamentous fungi (voriconazole).

[2] = system: Candida guilliermondii Cgui3; conditions: Meyerozyma guilliermondii
Method: as §1, §2, §3, §4, §5

[3] = system: Paecilomyces variotii MYA-3630
Method: as §1, §2, §3, §4, §5

[4] = system: Candida albicans 43001
Method: as §1, §2, §3, §4, §5

[5] = system: Candida guilliermondii Cgui1; conditions: Meyerozyma guilliermondii
Method: as §1, §2, §3, §4, §5

[6] = system: Candida auris DI17-47; conditions: Candidozyma auris
Method: as §1, §2, §3, §4, §5

[7] = system: Candida parapsilosis CP3; conditions: Lodderomyces parapsilosis
Method: as §1, §2, §3, §4, §5

[8] = system: Candida auris DI17-46; conditions: Candidozyma auris
Method: as §1, §2, §3, §4, §5

[9] = system: Candida krusei ATCC6258; conditions: Pichia kudriavzevii
Method: as §1, §2, §3, §4, §5

[10] = system: Candida glabrata 05-62
Method: as §1, §2, §3, §4, §5

[11] = system: Candida albicans CA3
Method: as §1, §2, §3, §4, §5

[12] = system: Blastomyces dermatitidis BD3
Method: as §1, §2, §3, §4, §5

[13] = system: Candida guilliermondii Cgui2; conditions: Meyerozyma guilliermondii
Method: as §1, §2, §3, §4, §5

[14] = system: Cryptococcus neoformans USC 1597
Method: as §1, §2, §3, §4, §5

[15] = system: Aspergillus fumigatus AF2
Method: as §1, §2, §3, §4, §5

[16] = system: Aspergillus fumigatus AF3
Method: as §1, §2, §3, §4, §5

[17] = system: Candida parapsilosis CP2; conditions: Lodderomyces parapsilosis
Method: as §1, §2, §3, §4, §5

[18] = system: Candida albicans SC5314
Method: as §1, §2, §3, §4, §5

[19] = system: Candida albicans CA5
Method: as §1, §2, §3, §4, §5

[20] = system: Blastomyces dermatitidis BD1
Method: as §1, §2, §3, §4, §5

[21] = system: Candida albicans CA6
Method: as §1, §2, §3, §4, §5

[22] = system: Cryptococcus neoformans H99
Method: as §1, §2, §3, §4, §5

[23] = system: Candida glabrata 05-761
Method: as §1, §2, §3, §4, §5

[24] = read-out: MIC, 50% growth inhibition
[25] = read-out: MIC, 100% growth inhibition

Measured: MIC

N=C(N)c1ccc(CC[C@H]2CCC[C@@H](CCc3ccc(C(=N)N)cc3)C2)cc1 [Compound 3, 4,4′-(2,2′-((1R,3S)-cyclohexane-1,3-diyl)bis(ethane-2,1-diyl))dibenzimidamide]
32 µg/mL: [15]; [24] | [15]; [25] | [16]; [24]
0.5 µg/mL: [4]; [25] | [9]; ATCC6258, C. krusei ATCC 6258, second round (Table 6), read-out: MIC, 50% growth inhibition | [14]; USC1597, read-out: MIC, 50% growth inhibition | [14]; USC1597, read-out: MIC, 100% growth inhibition | [19]; [25] | [21]; [24] | [21]; [25] | [22]; [24] | [22]; [25]
8 µg/mL: [7]; [25] | [9]; ATCC6258, Candida krusei ATCC6258, first round (Table 5), read-out: MIC, 50% growth inhibition | [9]; ATCC6258, read-out: MIC, 100% growth inhibition, Candida krusei ATCC6258, first round (Table 5) | [12]; [25] | [20]; [25]
64 µg/mL: [16]; [25]
1 µg/mL: [3]; MYA3630, read-out: MIC, 50% growth inhibition | [3]; MYA3630, read-out: MIC, 100% growth inhibition | [5]; [24] | [5]; [25] | [6]; DI1747, read-out: MIC, 50% growth inhibition | [9]; ATCC6258, read-out: MIC, 100% growth inhibition, C. krusei ATCC 6258, second round (Table 6) | [11]; [24] | [11]; [25] | [17]; [24] | [18]; [24] | [18]; [25] | [23]; Nakaseomyces glabratus, 05761, read-out: MIC, 50% growth inhibition
16 µg/mL: [1]; [24] | [1]; [25]
4 µg/mL: [6]; DI1747, read-out: MIC, 100% growth inhibition | [8]; DI1746, read-out: MIC, 100% growth inhibition | [10]; Nakaseomyces glabratus, 0562, read-out: MIC, 100% growth inhibition | [12]; [24] | [17]; [25] | [20]; [24]
0.25 µg/mL: [4]; [24] | [19]; [24]
2 µg/mL: [2]; [24] | [2]; [25] | [7]; [24] | [8]; DI1746, read-out: MIC, 50% growth inhibition | [10]; Nakaseomyces glabratus, 0562, read-out: MIC, 50% growth inhibition | [13]; [24] | [13]; [25] | [23]; Nakaseomyces glabratus, 05761, read-out: MIC, 100% growth inhibition
